Assay results reported in patent publication US20170143712A1, “Methods of Treating Cancers, Immune and Autoimmune Diseases, and Inflammatory Diseases Based on BTK Occupancy and BTK Resynthesis Rate” (Acerta Pharma B.V., priority 2014, published 2017).

Experiments:
[1] = test system: established type II collagen-induced arthritis (CIA) in DBA/1 mice; experiment: Mouse established CIA, dosing from arthritis day 8, QD or BID (Example 11); format: in vivo; details: for AUC (All Paws) - Corrected for Initial Score / Change in Body Weight (g) Days 1-19 / Histopathology Summed Score Knees / Histopathology Summed Score Paws / Histopathology Summed Score Six-Joints / Paw Score AUC (All Paws): mean(SE)
Excerpt: A study was designed to determine the efficacy of a covalently acting BTK inhibitor, Formula (II) in inhibiting acute inflammation, pannus formation, cartilage destruction, and bone resorption associated with established type II collagen-induced arthritis (CIA) in DBA/1 mice. Immunization with heterologous type II collagen (CII) induces arthritis in mice of the DBA/1 strain, which is genetically susceptible to this disease. To develop an experimental model of autoimmunity more adequate for the study of human rheumatoid arthritis (RA), male DBA/1 mice were injected intradermally (ID) with bovine type II collagen to induce arthritis as reported by Trentham et al (Trentham D E, Townes A S, Kang A H Autoimmunity to type II collagen: an experimental model of arthritis. J. Exper. Med. 1977, 146:857-868) and Bendele A (Bendele A, Animal models of rheumatoid arthritis. J. Musculoskelet. Neuronal Interact. 2001, 1(4):377-85).
Following acclimatization, 6-7 week old male DBA/1 mice (n=10/group for arthritis) were immunized at the base of the tail, with 150 μL of Freund's Complete Adjuvant (Difco, Detroit, Mich.) containing 1 mg/mL bovine type II collagen by intradermal injection. Immunizations were performed day 0 and again on day 21. On study days 25-26, on day 8 following onset of arthritis, the mice were randomized into treatment groups. […] Dosing began on arthritis day 8 by oral gavage. Groups were treated with vehicle (0.4% HPMC, 0.2% Tween 80), Formula (II) at 25 mg/kg QD, Formula (II) at 12.5 mg/kg BID, or the reference compound dexamethasone (Dex) at 0.2 mg/kg QD. These animals were fasted overnight on arthritis day 20 (13 days after enrollment) prior to necropsy on arthritis day 21. Clinical scores were given for each of the paws (right front, left front, right rear, left rear) on arthritis days 1-21.
Efficacy evaluation was based on animal body weights, clinical arthritis scores, arthritis scores expressed as area under the curve (AUC), and histopathology on fore paws, hind paws, and knees. Histopathology results were expressed as 4 paws, knees only, or 6 joints (knees included). Day 19 was used as the endpoint for analysis of body weight change since the male DBA/1 mice were fasted overnight prior to necropsy on day 21.
Necropsies were conducted on fasted mice and terminal serum, fore paws, hind paws, and knees were collected into 10% neutral buffered formalin (NBF) for microscopy. Spleens were harvested and weighed.

[2] = test system: psoriasis; experiment: Clinical observation of psoriasis in CLL/SLL study subjects; format: in vivo, human
Excerpt: Clinical studies have shown that targeting the BCR signaling pathway by inhibiting BTK produces significant clinical benefit in patients with various types of leukemias and lymphomas. Formula (II) achieves significant oral bioavailability and potency, and has favorable preclinical characteristics, as described above. The purpose of this study is to evaluate the safety and efficacy of the second generation BTK inhibitor of Formula (II) in treating subjects with chronic lymphocytic leukemia (CLL) and small lymphocytic lymphoma (SLL). The primary objectives of the clinical study are as follows: […] The secondary objective of the clinical study is to evaluate tumor responses in patients treated with Formula (II). In addition, effects of Formula (II) on other patient characteristics, such as dermatoses, were evaluated for particular patients enrolled in the study. This study is a multicenter, open-label, nonrandomized, sequential group, dose escalation study. The following dose cohorts are evaluated: The study scheme is a sequential cohort escalation. Each cohort consists of six subjects. The sample size of the study is 24 to 36 subjects, depending on dose escalation into subsequent cohorts. Cohort 1 (N=6) consists of Formula (II), 100 mg QD for 28 days. Cohort 2 (N=6) consists of Formula (II), 175 mg QD for 28 days. Cohort 3 (N=6) consists of Formula (II), 250 mg QD for 28 days. Cohort 4 (N=6) consists of Formula (II), 350 mg QD for 28 days. Cohort 5 (N=6) consists of Formula (II), 450 mg QD for 28 days. Cohort 6 (N=6) consists of Formula (II), at a dose to be determined QD for 28 days. The dose level for Cohort 6 will be determined based on the safety and efficacy of Cohorts 1 to 5, and will not exceed 900 mg/day. […] Treatment with oral Formula (II) may be continued for greater than 28 days until disease progression or an unacceptable drug-related toxicity occurs. The dosage form and strength of Formula (II) used in the clinical study is a hard gelatin capsules prepared using standard pharmaceutical grade excipients (microcrystalline cellulose) and containing 25 mg of Formula (II) each. The color of the capsules is Swedish orange. The route of administration is oral (per os, or PO). […] They were treated over time with several systemic therapies including etanercept, adalimumab, and a 2010 clinical study of an experimental agent. They initially responded to etanerceptbut continued to have flares, and was under the care of a dermatologist prior to enrolling in the clinical study. Their treatment history included topical medications, and recently included Taclonex (calcipotriene/betamethasone diproprionate), without much improvement in skin lesions.

Structure (SMILES): CC#CC(=O)N1CCC[C@H]1c1nc(-c2ccc(C(=O)Nc3ccccn3)cc2)c2c(N)nccn12 [Formula (II), (S)-4-(8-amino-3-(1-(but-2-ynoyl)pyrrolidin-2-yl)imidazo[1,5-a]pyrazin-1-yl)-N-(pyridin-2-yl)benzamide]
- Clinical arthritis score AUC (d8-d21), reduction vs vehicle controls ([1]; 12.5 mg/kg BID): 59%
- absolute spleen weights, reduction vs vehicle controls ([1]; 12.5 mg/kg BID): 64%
- knee bone resorption, reduction vs vehicle controls ([1]; 12.5 mg/kg BID): 78%
- knee inflammation, reduction vs vehicle controls ([1]; 12.5 mg/kg BID): 49%
- knee pannus formation, reduction vs vehicle controls ([1]; 12.5 mg/kg BID): 80%
- six joint histopathology, reduction of summed scores ([1]; 12.5 mg/kg BID): 53%
- summed knee scores, reduction vs vehicle controls ([1]; 12.5 mg/kg BID): 45%
- arthritis scores measured daily vs vehicle controls ([1]; 12.5 mg/kg BID, p<0.05 on days 9-21): significantly reduced toward normal
- AUC (All Paws) - Corrected for Initial Score ([1]; 12.5 mg/kg PO BID): *−23.05(2.58)
- Change in Body Weight (g) Days 1-19 ([1]; 12.5 mg/kg PO BID): †0.64(0.69) g
- Histopathology Summed Score Knees ([1]; 12.5 mg/kg PO BID): *6.73(0.60)
- Histopathology Summed Score Paws ([1]; 12.5 mg/kg PO BID): *7.49(1.03)
- Histopathology Summed Score Six-Joints ([1]; 12.5 mg/kg PO BID): *7.23(0.77)
- Paw Score AUC (All Paws) ([1]; 12.5 mg/kg PO BID): *22.45(2.68)
- AUC (All Paws) - Corrected for Initial Score ([1]; 25 mg/kg PO QD): *−24.48(3.85)
- Change in Body Weight (g) Days 1-19 ([1]; 25 mg/kg PO QD): 2.37(0.28) g
- Histopathology Summed Score Knees ([1]; 25 mg/kg PO QD): *6.00(0.76)
- Histopathology Summed Score Paws ([1]; 25 mg/kg PO QD): *7.11(0.98)
- Histopathology Summed Score Six-Joints ([1]; 25 mg/kg PO QD): *6.74(0.80)
- Paw Score AUC (All Paws) ([1]; 25 mg/kg PO QD): *23.63(3.37)
- Clinical arthritis score AUC (d8-d21), reduction vs vehicle controls ([1]; 25 mg/kg QD): 56%
- knee bone resorption, reduction vs vehicle controls ([1]; 25 mg/kg QD): 82%
- knee cartilage damage, reduction vs vehicle controls ([1]; 25 mg/kg QD): 28%
- knee inflammation, reduction vs vehicle controls ([1]; 25 mg/kg QD): 53%
- knee pannus formation, reduction vs vehicle controls ([1]; 25 mg/kg QD): 82%
- six joint histopathology, reduction of summed scores ([1]; 25 mg/kg QD): 56%
- summed knee scores, reduction vs vehicle controls ([1]; 25 mg/kg QD): 51%
- tolerability ([1]; 25 mg/kg QD or 12.5 mg/kg BID, DBA/1 mice): well tolerated
- arthritis scores measured daily vs vehicle controls ([1]; 25 mg/kg QD, p<0.05 on days 11-21): significantly reduced toward normal
- Psoriasis Area and Severity Index achieved (PASI90) ([2]; Subject 1, CLL patient with severe psoriasis, 10 month visit): 90%
- serum IL-6, MIP-1α, MCP-1β, TNFA, TARC, CXCLS, CD40L, TRAIL, EGF, CXCL1 relative to baseline ([2]; Subject 1, Day 28 of treatment): decreased
- psoriatic skin disease ([2]; Subject 1, by Cycle 10 (10 months on treatment)): their skin was clear
- moderate-to-severe plaque psoriasis ([2]; Subject 2, after initiation of treatment): cleared quickly
